Test results as given in PMC9585581, “Developing Photoaffinity Probes for Dopamine Receptor D2 to Determine Targets of Parkinson’s Disease Drugs” (ACS Chemical Neuroscience, 2022).

Tests used:
[1] = biological target: T1, human DRD2, long form (Homo sapiens, UniProt P14416); experiment: Intracellular Ca2+ mobilization assay (HEK293T stably expressing DRD2, chimeric G-protein Gqi5, calcium dye, confocal microscopy); type: cell-based; conditions: for EC50: Ca assay, HEK293T stably expressing human DRD2 and chimeric G-protein, Hill slope of 1.0; for activity in calcium flux assay (in words): calcium flux bioactivity
T1 construct: expressed in transfected cells; Gqi5 chimera transiently transfected
T1 sequence (P14416 whole entry): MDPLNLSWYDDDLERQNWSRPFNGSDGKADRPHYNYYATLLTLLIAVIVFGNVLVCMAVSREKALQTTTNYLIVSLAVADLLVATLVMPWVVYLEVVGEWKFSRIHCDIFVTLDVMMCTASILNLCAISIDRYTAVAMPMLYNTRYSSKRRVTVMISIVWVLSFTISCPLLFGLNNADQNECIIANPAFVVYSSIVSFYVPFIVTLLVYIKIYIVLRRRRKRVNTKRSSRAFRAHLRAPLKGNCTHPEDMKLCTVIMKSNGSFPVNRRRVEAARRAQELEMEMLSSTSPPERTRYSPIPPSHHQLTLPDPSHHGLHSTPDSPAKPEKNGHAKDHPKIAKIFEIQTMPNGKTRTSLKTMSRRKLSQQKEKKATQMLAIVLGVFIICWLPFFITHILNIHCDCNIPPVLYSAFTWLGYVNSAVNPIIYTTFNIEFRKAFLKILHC
Method: Intracellular calcium measurement was used to determine G-protein-mediated signaling by DRD2. Because DRD2 is linked to the G-protein subtype Gi, agonist binding inhibits adenyl cyclase activity.[42] To mitigate this effect, we created an HEK293T cell line stably expressing human DRD2, long form, and a chimeric G-protein, Gqi, which alters the DRD2 receptor’s G-protein coupling so that signaling can occur through Gq, resulting in an intracellular calcium flux.[43] The assay is performed by first loading the cell line with a calcium-sensing dye. Binding of the ligand to the receptor results in an influx of calcium to the cytoplasm, which can be characterized in real time by monitoring the increase in dye fluorescence with confocal microscopy.
Figure 2 Intracellular calcium flux assay. HEK293T cell line stably expressing constructs for human DRD2 and a chimeric G-protein is loaded with calcium-sensing dye, […]. After dosing the probe, confocal microscopy is used to determine the calcium flux in the cell by change in dye fluorescence.
A stable HEK293T-derived cell line-expressing DRD2-Strep Tag II fusion was maintained in DMEM supplemented with 10% FBS, 100 U/mL penicillin, and 100 μg/mL streptomycin in a humidified atmosphere at 37 °C in 5% CO2. On day 1, cells were plated at a density of 4 × 10^4 cells/cm^2 in a poly-D-lysine-coated 18-well chambered coverslip (Ibidi). The following day (day 2), cells were transfected with a 10× solution of 3:1 mixture of Gqi5/Optifect Transfection Reagent (Thermo) in unsupplemented DMEM. On day 3, the transfection media was removed and calcium-sensitive dye loading was performed following the protocol of the Fluo-4 Direct Calcium Assay Kit (Invitrogen). 5× drug stimulation solutions were prepared in filter-sterilized HBSS. Once Fluo-4 loading was complete, a time series acquisition at a rate of 1 fps was recorded using a Zeiss LSM 980 with Airyscan 2. Basal fluorescence was recorded for 20 s, followed by the addition of drug solution to a 1× final concentration and acquisition for an additional 40 s. Results in the form of fold fluorescence increase over basal were averaged over 50 cells in ImageJ (NIH), and GraphPad Prism was used for the analysis of data.

[2] = system: DRD2-expressing 293T cells vs untransduced 293T cells; experiment: Flow cytometry quantification of probe labeling of cells; type: cell-based, human; conditions: probe 100 nm, photo-cross-linked, Alexa Fluor 555 azide; P < 0.0001, two-way ANOVA
Method: Flow cytometry was used to quantify the number of cells that were successfully labeled by probes 5 and 7 as these were the most promising biochemically and seemed to display the highest propensity for labeling DRD2-expressing cells. To perform the quantification, our 293T cell line-expressing DRD2 or unmodified 293T cells as a negative control were treated with probes at a 100 nm concentration, the lower concentration than the EC50 determination, likely due in large part to the covalent nature of the binding event versus the noncovalent EC50 assays. The probes were covalently cross-linked to the cells with UV, and the unbound probe was washed out. The azide-containing fluorescent dye was then clicked onto the probe, the unbound dye was washed out, and the cells were analyzed by flow cytometry (Figure 5a). […]
Figure 5 Flow cytometry quantification of probe labeling. […] The cells were then analyzed by flow cytometry. P values determined using two-way ANOVA in GraphPad; **** corresponds to P < 0.0001. […]
HEK293T cells and a stable HEK293T-derived cell line-expressing DRD2-Strep Tag II fusion were maintained in DMEM supplemented with 10% FBS, 100 U/mL penicillin, and 100 μg/mL streptomycin in a humidified atmosphere at 37 °C in 5% CO2. […] The cells were then washed 3 times with PBS with 5% BSA and analyzed with a BD Accuri C6 flow cytometer. […]

## C#CCOc1ccc(C(=O)c2ccc(CNCCc3cccc4c3CC(=O)N4)cc2)cc1 [Compound 5, 4-(2-((4-(4-(Prop-2-yn-1-yloxy)benzoyl)benzyl)amino)ethyl)indolin-2-one]
[1]
  EC50: 1670 nM
  activity in calcium flux assay (in words): low micromolar potency
[1]; calcium assay, 5 vs ropinirole
  difference in potency of probe vs parent compound: ~10 ×
[2]
  labeling of cells expressing DRD2 vs cells that do not (flow cytometry): highly statistically significant increase in the labeling of cells expressing DRD2 over those that do not

## C#CCOc1ccc(C(=O)c2ccc(CN[C@H]3CCc4nc(N)sc4C3)cc2)cc1 [Compound 7, (S)-(4-(((2-Amino-4,5,6,7-tetrahydrobenzo[d]thiazol-6-yl)amino)methyl)phenyl)(4-(prop-2-yn-1-yloxy)phenyl)methanone]
[1]
  EC50: 2190 nM
  activity in calcium flux assay (in words): low micromolar potency
[2]
  labeling of cells expressing DRD2 vs cells that do not (flow cytometry): highly statistically significant increase in the labeling of cells expressing DRD2 over those that do not
